This data set can be described thus: Flowable powder formation by freeze-drying (lyophilization), Example 1. It is filed as physicochemical.

Description: The powder former (amount based on 1:1, 1:2 or 1:4 molar Δ^9-THC:powder former ratio) was dissolved in H2O (2 mL) and, if needed, dioxane (2 mL) was added to form a solution. The powder former solution was added to the Δ^9-THC solution in the round bottom flask. The round bottom flask was then submerged in a dry ice/acetone bath or liquid nitrogen to freeze the solution while continuously rotating the flask by hand to maximize surface area and form an even, thin layer around the flask. Once frozen, the round bottom flask was attached to a LabConco lyophilizer with an Edwards RV8 vacuum pump pre-equilibrated at ^˜−50° C. Samples were left overnight (18 hrs) and removed the next day.
Δ^9-THC and several powder formers were lyophilized using the described procedure to determine if a flowable powder would result.

Take `CCCCCc1cc(O)c2c(c1)OC(C)(C)[C@@H]1CCC(C)=C[C@@H]21` [Δ^9-THC, (−)-trans-Δ^9-tetrahydrocannabinol]: the “Result of lyophilizing without a powder former” value is listed as “gel” (from dioxane alone) and “tacky gel” (from dioxane/water (~75/25 by volume)).

The record behind these values is patent publication US12090137B2, “Solid Δ9-tetrahydrocannabinol (Δ9-THC) compositions” (CANNA-C[…], priority 2020, dated 2024).
